ChEMBL document CHEMBL1144309, “Specific recognition of napthyridine-based ligands toward guanine-containing bulges in RNA duplexes and RNA-DNA heteroduplexes” (Bioorg Med Chem Lett, 2005)
pKd: −log10 of the molar value.

Tests used:
[1] = system: Human immunodeficiency virus 1; assay: Dissociation constant was measured against HIV-1 RNA construct E (present in HIV-1 RRE IIB RNA region); N.B. = no measurable binding; format: functional
[2] = system: Human immunodeficiency virus 1; assay: Dissociation constant was measured against HIV-1 RNA construct F (present in HIV-1 RRE IIB RNA region); N.B. = no measurable binding; format: functional, organism-based
[3] = system: Human immunodeficiency virus 1; assay: Dissociation constant was measured against HIV-1 RNA construct G (present in HIV-1 RRE IIB RNA region); N.B. = no measurable binding; format: functional, organism-based
[4] = system: Human immunodeficiency virus 1; assay: Dissociation constant was measured against HIV-1 RNA construct H (present in HIV-1 RRE IIB RNA region); N.B. = no measurable binding; format: functional, organism-based
[5] = system: Human immunodeficiency virus 1; assay: Dissociation constant was measured against HIV-1 RNA construct A (present in HIV-1 RRE IIB RNA region); format: functional
[6] = system: Human immunodeficiency virus 1; assay: Dissociation constant was measured against HIV-1 RNA construct B (present in HIV-1 RRE IIB RNA region); format: functional
[7] = system: Human immunodeficiency virus 1; assay: Dissociation constant was measured against HIV-1 RNA construct C (present in HIV-1 RRE IIB RNA region); format: functional
[8] = system: Human immunodeficiency virus 1; assay: Dissociation constant was measured against HIV-1 RNA construct D (present in HIV-1 RRE IIB RNA region); format: functional
[9] = system: Human immunodeficiency virus 1; assay: Dissociation constant was measured against HIV-1 RNA construct I (present in HIV-1 RRE IIB RNA region); format: functional
[10] = system: Human immunodeficiency virus 1; assay: Dissociation constant was measured against HIV-1 RNA construct J (present in HIV-1 RRE IIB RNA region); format: functional
[11] = system: Human immunodeficiency virus 1; assay: Dissociation constant was measured against HIV-1 RNA construct K (present in HIV-1 RRE IIB RNA region); format: functional

| Compound | Kd [1] | Kd [2] | Kd [3] | Kd [4] | pKd [5] | pKd [6] | pKd [7] | pKd [8] | pKd [9] | pKd [10] | pKd [11] |
| --- | --- | --- | --- | --- | --- | --- | --- | --- | --- | --- | --- |
| Cc1ccc2ccc(NC(=O)CCN)nc2n1 | No binding | No binding | No binding | No binding | 5.85 | 5.62 | 5.54 | 5.49 |  |  |  |
| Cc1ccc2ccc(NC(=O)CCNCCNCCC(=O)Nc3ccc4ccc(C)nc4n3)nc2n1 |  |  |  |  |  |  |  |  | 4.45 | 4.49 | 4.46 |
